The record followed here is patent publication US20130337095A1, “ANTIMICROBIAL COMPOSITION AND ITS METHOD OF USE” (Waikatolink Limited, priority 2012, published 2013).

≈ marks a conversion by molar mass, not a printed value. Counter-ions that a name gives are not always drawn. Like-named read-outs stand apart in the source and are kept apart here.

Type in all cases: cell-based
For test [1], the system named is Pseudomonas aeruginosa (ESR strain 981, NTC 10662, ATCC 25668). Description: MIC assay, in-vitro anti P. aeruginosa activity. The settings on record: antibiotics; for MIC90: Pseudomonas aeruginosa, ATCC25668. The protocol: To exemplify the concept of the present invention, the in vitro activity of three novel plant extracts melaleuca oil, manuka oil, and black walnut hull extract, and blends of these extracts, were tested against an isolate of Pseudomonas aeruginosa from a reference library. MIC90 refers to the minimum inhibitory concentration required to inhibit the growth of 90% of the organisms. The methods and materials used for this preliminary study are outlined in Example 3.
• The methodology used in this study is based on standard MIC assay methods referenced in numerous publications. • Each of the extracts was serially diluted to give 11 different concentrations. The diluted samples were then incubated with the Pseudomonas aeruginosa (ESR strain 981, NTC 10662, ATCC 25668, DSM 46358, NC/MB 13063). The MICs were determined as the lowest concentration of each extract that inhibits growth of the bacteria as determined by measurement of OD650 nm using a VersaMax 96 well plate reader.
• Tryptic soy agar base (Bacto Difco Media Cat. No. 236940, Becton Dickinson and company). • Mueller II broth cation-adjusted (BBL media Cat. No. 212332, Becton Dickinson and company).
• a) The isolate of Pseudomonas aeruginosa was streaked from −70° C. cryostocks onto Tryptic Soy Agar (TSA) plates and incubated for 24-48 hrs at 37° C. until visible single colonies developed. • b) One colony was picked, using a sterile inoculating loop and used to inoculate sterile 10 ml universals of Mueller II Cation-adjusted broth. Inoculated broths were incubated for approx 18 hrs at 37° C. • c) Following overnight incubation the culture was diluted with fresh sterile Mueller II cation adjusted broth to an OD650 nm of approximately 0.1, equivalent to approx […] (cell number and OD650 nm was determined and optimised prior to commencement of MIC testing). This is the seed broth which was used to inoculate the test wells in each plate. The seed culture was held at 4° C. until required for plating. • d) Stock solutions of each test extract were prepared so that their concentration is 64 μg/ml in the appropriate formulation in Mueller II cation adjusted broth. Once the extract was added to the broth it was mixed using a vortex mixer for approx 30 sec to ensure homogenous dispersion throughout the broth solution. • e) A 96 well microtitre plate was then set up as follows: To all wells, except the first in every row, 100 μl of sterile Mueller II cation adjusted broth was added. The plate was prepared up to 24 hrs in advance and held at −20° C. until ready for use. • f) If the plate was prepared in advance, it needed to be thawed at room temperature. […]

Test [2] relates to Staphylococcus aureus (NZCC865, ATCC12598). In words: MIC assay against S. aureus (methicillin-sensitive). As to the method:
(§1) To exemplify the concept of the present invention, the in vitro activity of three novel plant extracts melaleuca oil, manuka oil, and black walnut hull extract in a specific ratio described herein, were tested against an isolate of various microbes (methicillin-sensitive S. aureus, methicillin-resistant S. aureus, S. pyogenes, S. agalactiae, S. uberis, E. coli, C. albicans) from a reference library.
(§2) MIC90 refers to the minimum inhibitory concentration required to inhibit the growth of 90% of the organisms. The methods and materials used for this preliminary study are outlined in Example 5.
(§3) The test formulation, comprising three novel plant extracts melaleuca oil, manuka oil, and black walnut hull extract in a specific ratio described herein, was serially diluted to give 11 different concentrations. The diluted samples were then incubated with individual microbes, and the MICs were determined as the lowest concentration of test substance that inhibited the growth of the microbe as determined by measurement of OD650 nm using a VersaMax 96 well plate reader. […]

The subject of test [3] is Staphylococcus aureus (NZCC 4410, ATCC 33591, Strain 328 methicillin resistant). Description: MIC assay against methicillin-resistant S. aureus. As to the method:
as §1, §2, §3

For test [4], the system named is Streptococcus agalactiae (NZRM 2721, ATCC 27956). In words: MIC assay against S. agalactiae. As to the method: as §1, §2, §3
The subject of test [5] is Escherichia coli (NZRN 2220, ATCC 291214). Description: MIC assay against E. coli. As to the method:
as §1, §2, §3

The subject of test [6] is Streptococcus pyogenes. In words: MIC assay against S. pyogenes. The protocol:
as §1, §2, §3

Test [7] concerns Streptococcus uberis (NZRM 2266 NCTC 3858). Description: MIC assay against S. uberis. The protocol:
as §1, §2, §3

In the case of gentamicin [F. gentamicin], the “MIC90 18 h” value in test [1] (18 h) is 0.098 µg/mL. Further, the “MIC90 24 h” value in test [1] (24 h) turned out to be 3.125 µg/mL.

As for `[H]/N=C(/N)N[C@H]1[C@H](O)[C@@H](O)[C@H](O[C@@H]2O[C@@H](C)[C@](O)(C=O)[C@H]2O[C@@H]2O[C@@H](CO)[C@H](O)[C@@H](O)[C@@H]2NC)[C@@H](N/C(N)=N\[H])[C@@H]1O` [Streptomycin], the “MIC antibiotic reference 16 h” value in test [2] amounted to 0.003 µg/mL (≈ 0.00516 µM).

On to `C[C@H]1c2cccc(O)c2C(=O)C2=C(O)[C@]3(O)C(=O)C(C(N)=O)=C(O)[C@@H](N(C)C)[C@@H]3[C@@H](O)[C@@H]21` [Doxycycline], for which the “MIC antibiotic reference 16 h” value in test [3] (16 h) was determined as 0.05 µg/mL (≈ 0.113 µM).

Take `CC1=C(C(=O)O)N2C(=O)[C@@H](NC(=O)[C@H](N)c3ccccc3)[C@H]2SC1` [Cephalexin, Cephalexin hydrate]: the “MIC antibiotic reference 16 h” value in test [4] (16 h) is 0.098 µg/mL. Moreover, the “MIC antibiotic reference 24 h” value in test [4] (24 h) worked out at 0.098 µg/mL.

`CCN1CCN(c2cc3c(cc2F)c(=O)c(C(=O)O)cn3C2CC2)CC1` [Enfrofloxacin]: the “MIC antibiotic reference 24 h” value in test [3] (24 h) is 0.05 µg/mL (≈ 0.139 µM).

`O=C(O)c1cn(C2CC2)c2cc(N3CCNCC3)c(F)cc2c1=O` [G. ciprofloxacin, ciprofloxacin]: the MIC90 worked out at 0.049 µg/mL (≈ 0.148 µM) in test [1] (18 h, read-out: MIC90 18 h) and 0.098 µg/mL (≈ 0.296 µM) in test [1] (24 h, read-out: MIC90 24 h). The “MIC antibiotic reference 16 h” value in test [5] (16 h) amounted to 0.049 µg/mL (≈ 0.148 µM). The “MIC antibiotic reference 24 h” value in test [5] (24 h) was 0.049 µg/mL (≈ 0.148 µM).

As for `CC1(C)S[C@@H]2[C@H](NC(=O)Cc3ccccc3)C(=O)N2[C@H]1C(=O)O` [Penicillin, Penicillin G sodium salt], the “MIC antibiotic reference 16 h” value in test [6] (16 h) and in test [7] (16 h) was 0.049 µg/mL each time. Besides, the “MIC antibiotic reference 24 h” value in test [6] (24 h) and in test [7] (24 h) was 0.049 µg/mL each time.
